Measured values reported in EP0156785A1, “2-(Aminoalkyl)-acrylophenones, their preparation and their use” (S.A.R.L. GALEPHAR, priority 1984, dated 1985).

What was measured:
rat = experiment: Triton WR 1339-induced hyperlipidaemia in the rat (plasma triglycerides and cholesterol); format: in vivo; conditions: Triton WR 1339 175 mg/kg (IV), plasma 24 h after Triton
Description: Cette propriété a été mise en évidence chez le rat au moyen de la méthode utilisant le Triton WR 1339 comme inducteur d'hyperlipémie.
Quatre heures après l'injection I.V. aux rats de 175 mg de Triton WR 1339 par kg de poids corporel, on leur injecte par voie intrapéritonéale soit du sérum physiologique (témoins) soit la substance à étudier. Les rats sont sacrifiés 24 heures après l'injection du Triton WR 1339 et les plasmas recueillis pour les dosages (résultats : Tableau I) des triglycérides et du cholestérol.

plaquettes = experiment: Platelet anti-aggregation activity, aggregation induced by adenosine triphosphate; format: cell-based; conditions: dose reducing platelet aggregation by 50%; inducer adénosine triphosphate; read-out: D.E.50 (the source's name)
Source text: Les propriétés antiagrégantes plaquettaires des acrylophénones de la présente invention ont été mises en évidence au moyen d'adénosine triphosphate choisi comme agent inducteur de l'agrégation plaquettaire.
Les doses efficaces réduisant de 50% l'agrégation des plaquettes (D.E.50) ont été déterminées (Tableau II). Ces résultats montrent que les substances agissent à des doses de l'ordre micromolaire.

[1] = Qualitative solubility of the isolated product; format: physicochemical
Description: 3 g (0,1 M) de trioxyméthylène et 8,65 g (0,05 M) de dichlorhydrate de N-méthylpipérazine sont ajoutés à 6 g d'acétophénone dans 20 ml d'acide acétique. Le mélange est chauffé à reflux pendant 3 h. Le solvant est éliminé et le résidu jaune huileux est dissous dans 50 ml d'éthanol. Après élimimation du solvant, le résidu cristallise dans du méthanol.

[2] = treatment 4 mg/kg (IP) 4 h after Triton
[3] = treatment 2 mg/kg (IP) 4 h after Triton

Row | SMILES | Diminution(%)sous l'influence du traitement cholestérolémie (rat; [2]) | Diminution(%)sous l'influence du traitement triglycéridémie (rat; [2]) | IC50 (plaquettes) | solubilité dans l'acétone ([1]; acetone) | solubilité dans l'alcool ([1]; alcohol) | solubilité dans l'eau ([1]; water) | Diminution(%)sous l'influence du traitement cholestérolémie (rat; [3]) | Diminution(%)sous l'influence du traitement triglycéridémie (rat; [3])
1 | C=C(CN1CCN(C)CC1)C(=O)c1ccccc1 [Exemple 1, Dichlorhydratede 2-(4-méthyl-1-pipérazinylméthyl)acrylophénone] | 57,5% | 47% | 1320 nM | pratiquement insoluble dans l'acétone | peu soluble dans l'alcool | très soluble dans l'eau |  | 
2 | C=C(CN1CCOCC1)C(=O)c1ccccc1 [chlorhydratede 2-(1-morpholinométhyl)-acrylophénone] | 51,0% | 44,5% | 1940 nM |  |  |  |  | 
3 | C=C(CN(C)C)C(=O)c1ccccc1 [chlorhydratede 2-(N,N-diméthylaminométhyl)-acrylophénone] |  |  | 1130 nM |  |  |  | 48% | 36,5%
